# Measurements from ChEMBL document CHEMBL1201862, “PubChem BioAssay data set” (2004).
#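 Five compound concentrations were applied to cells in 96-well plates for 48 hours; endpoints were derived by simple linear interpolation of the resulting dose-response curve. GI50 marks 50% less growth.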 Calls of active or inactive are those of the source. Rule as the data show it: active = GI50 up to about 1.1 µM and inactive = higher.
# Tests used:
# Experiment in all cases: growth of human tumour cells (NCI), 48 h
# [1] = tested on: 786-0
# [2] = tested on: A498
# [3] = tested on: A549
# [4] = tested on: ACHN
# [5] = tested on: CAKI-1
# [6] = tested on: CCRF-CEM
# [7] = tested on: COLO 205
# [8] = tested on: DLD-1
# [9] = tested on: DMS-114
# [10] = tested on: DMS-273
# [11] = tested on: EKVX
# [12] = tested on: HCC 2998
# [13] = tested on: HCT-116
# [14] = tested on: HCT-15
# [15] = tested on: HL-60
# [16] = tested on: HOP-18
# [17] = tested on: HOP-62
# [18] = tested on: HOP-92
# [19] = tested on: HT-29
# [20] = tested on: IGROV-1
# [21] = tested on: KM-20L2
# [22] = tested on: KM12
# [23] = tested on: LOX IMVI
# [24] = tested on: M14
# [25] = tested on: M19-MEL
# [26] = tested on: MOLT-4
# [27] = tested on: Malme-3M
# [28] = tested on: NCI-H226
# [29] = tested on: NCI-H460
# [30] = tested on: NCI-H522
# [31] = tested on: OVCAR-3
# [32] = tested on: OVCAR-4
# [33] = tested on: OVCAR-5
# [34] = tested on: OVCAR-8
# [35] = tested on: RPMI-8226
# [36] = tested on: RXF 393
# [37] = tested on: RXF 631
# [38] = tested on: SF-268
# [39] = tested on: SF-295
# [40] = tested on: SF-539
# [41] = tested on: SK-MEL-28
# [42] = tested on: SK-MEL-5
# [43] = tested on: SK-OV-3
# [44] = tested on: SN12C
# [45] = tested on: SNB-19
# [46] = tested on: SNB-75
# [47] = tested on: SNB-78
# [48] = tested on: SR
# [49] = tested on: SW-620
# [50] = tested on: TK-10
# [51] = tested on: U-251
# [52] = tested on: UACC-257
# [53] = tested on: UACC-62
# [54] = tested on: UO-31
# [55] = tested on: K562
# [56] = tested on: NCI-H23
# [57] = tested on: SK-MEL-2
# [58] = tested on: XF498
compound,measurement,setting,value
C=CCC1(C)CCCCC1(O)C[S+]([O-])c1ccccc1 (stereo unspecified),GI50,[1],> 100 µM (inactive)
same,GI50,[2],> 100 µM (inactive)
same,GI50,[3],> 100 µM (inactive)
same,GI50,[4],> 100 µM (inactive)
same,GI50,[5],> 100 µM (inactive)
same,GI50,[6],> 100 µM (inactive)
same,GI50,[7],> 100 µM (inactive)
same,GI50,[8],> 100 µM (inactive)
same,GI50,[9],> 100 µM (inactive)
same,GI50,[10],> 100 µM (inactive)
same,GI50,[11],> 100 µM (inactive)
same,GI50,[12],> 100 µM (inactive)
same,GI50,[13],> 100 µM (inactive)
same,GI50,[14],> 100 µM
same,GI50,[15],54.5 µM (inactive)
same,GI50,[16],> 100 µM (inactive)
same,GI50,[17],> 100 µM (inactive)
same,GI50,[18],> 100 µM (inactive)
same,GI50,[19],> 100 µM (inactive)
same,GI50,[20],> 100 µM (inactive)
same,GI50,[21],> 100 µM (inactive)
same,GI50,[22],> 100 µM (inactive)
same,GI50,[23],> 100 µM (inactive)
same,GI50,[24],> 100 µM (inactive)
same,GI50,[25],> 100 µM (inactive)
same,GI50,[26],> 100 µM (inactive)
same,GI50,[27],> 100 µM (inactive)
same,GI50,[28],20.9 µM (inactive)
same,GI50,[29],> 100 µM (inactive)
same,GI50,[30],> 100 µM (inactive)
same,GI50,[31],> 100 µM (inactive)
same,GI50,[32],> 100 µM (inactive)
same,GI50,[33],> 100 µM (inactive)
same,GI50,[34],> 100 µM (inactive)
same,GI50,[35],33.7 µM (inactive)
same,GI50,[36],> 100 µM (inactive)
same,GI50,[37],> 100 µM (inactive)
same,GI50,[38],> 100 µM (inactive)
same,GI50,[39],> 100 µM (inactive)
same,GI50,[40],> 100 µM (inactive)
same,GI50,[41],> 100 µM (inactive)
same,GI50,[42],> 100 µM (inactive)
same,GI50,[43],> 100 µM (inactive)
same,GI50,[44],> 100 µM (inactive)
same,GI50,[45],> 100 µM (inactive)
same,GI50,[46],> 100 µM (inactive)
same,GI50,[47],> 100 µM (inactive)
same,GI50,[48],> 100 µM (inactive)
same,GI50,[49],> 100 µM (inactive)
same,GI50,[50],> 100 µM (inactive)
same,GI50,[51],> 100 µM (inactive)
same,GI50,[52],> 100 µM (inactive)
same,GI50,[53],> 100 µM (inactive)
same,GI50,[54],> 100 µM (inactive)
COc1ccc(C(Cc2cc(OC)c(OC)c(OC)c2)C(=O)O)cc1 (stereo unspecified),GI50,[1],71.8 µM (inactive)
same,GI50,[2],56.5 µM (inactive)
same,GI50,[3],60 µM (inactive)
same,GI50,[4],> 100 µM (inactive)
same,GI50,[5],64.1 µM (inactive)
same,GI50,[6],46 µM (inactive)
same,GI50,[7],> 100 µM (inactive)
same,GI50,[8],51.1 µM (inactive)
same,GI50,[9],41 µM (inactive)
same,GI50,[10],52.5 µM (inactive)
same,GI50,[11],63 µM (inactive)
same,GI50,[12],> 100 µM (inactive)
same,GI50,[13],41.5 µM (inactive)
same,GI50,[14],43.5 µM
same,GI50,[16],> 100 µM (inactive)
same,GI50,[17],> 100 µM (inactive)
same,GI50,[19],37.6 µM (inactive)
same,GI50,[20],76.2 µM (inactive)
same,GI50,[55],40.4 µM (inactive)
same,GI50,[21],56 µM (inactive)
same,GI50,[22],41.8 µM (inactive)
same,GI50,[23],> 100 µM (inactive)
same,GI50,[24],44.6 µM (inactive)
same,GI50,[25],45.7 µM (inactive)
same,GI50,[27],74 µM (inactive)
same,GI50,[28],13.6 µM (inactive)
same,GI50,[56],97.9 µM (inactive)
same,GI50,[29],45.7 µM (inactive)
same,GI50,[31],24.3 µM (inactive)
same,GI50,[32],> 100 µM (inactive)
same,GI50,[33],> 100 µM (inactive)
same,GI50,[34],> 100 µM (inactive)
same,GI50,[35],55.8 µM (inactive)
same,GI50,[37],> 100 µM (inactive)
same,GI50,[38],81.8 µM (inactive)
same,GI50,[39],26.1 µM (inactive)
same,GI50,[40],42.6 µM (inactive)
same,GI50,[41],56.6 µM (inactive)
same,GI50,[57],52 µM (inactive)
same,GI50,[42],25.9 µM (inactive)
same,GI50,[43],52.6 µM (inactive)
same,GI50,[44],> 100 µM (inactive)
same,GI50,[45],62.7 µM (inactive)
same,GI50,[46],22.8 µM (inactive)
same,GI50,[47],60.1 µM (inactive)
same,GI50,[49],46.9 µM (inactive)
same,GI50,[50],> 100 µM (inactive)
same,GI50,[51],> 100 µM (inactive)
same,GI50,[52],54.3 µM (inactive)
same,GI50,[53],31.2 µM (inactive)
same,GI50,[54],72.3 µM (inactive)
same,GI50,[58],40.5 µM (inactive)
